Test results reported in the OPERA property sets (Mansouri et al. 2018).

Row | logP | SMILES
1 | 3.25 | O=C(O)c1ccc(Cl)c(Cl)c1
2 | 2.89 | CCc1ccc(C(=O)O)cc1
3 | 1.76 | O=Cc1ccc(C(=O)O)cc1
4 | 1.28 | CN(C)c1ccc(C(=O)O)cc1
5 | 1.32 | CC(=O)Nc1cccc(C(=O)O)c1
6 | 3.09 | CCCOc1ccc(C(=O)O)cc1
7 | 1.03 | NCc1ccc(C(=O)O)cc1
8 | 3.42 | CCCc1ccc(C(=O)O)cc1

Row | SMILES | logP
9 | [N-]=[N+]=Nc1ccc(C(=O)O)cc1 | 2.54
10 | O=C(O)c1cc(Cl)ccc1Cl | 2.82
